From patent US20040192673A1, “N-aroyl cyclic amine derivatives as orexin receptor antagonists” (priority 2001, published 2004)

Assays:
rat = assay: Rat sleep/EEG studies; format: in vivo; conditions: central administration at the onset of the normal sleep period
Source text: Therefore antagonists of its receptor may be useful in the treatment of sleep disorders including insomnia.

freely-feeding rats = conditions: central administration, 4 hour time period; cited from earlier work

For “orexin-A: ligand for the orexin-1 receptor, an agonist of the orexin receptors; 33-residue peptide, sequence in b167 (QPLPDCCRQKTCSCRLYELLHGAGNHAAGILTL; not fully specified; Orexin-A; UniProt O43612 34-66, looked up)”, the “arousal (sleep/EEG)” value (rat) is listed as “dose-related increase in arousal” and the “increase in food intake over control rats receiving vehicle” value (freely-feeding rats) is listed as “approximately four-fold”.
